This note sets out measurements from US5387109A (priority 1992, dated 1995).

The test system of the first assay is fructosylamine deglycase. As to the kind of experiment: Substrate specificity of the enzyme to amadori compounds (colorimetric determination of hydrogen peroxide formed). It is filed as biochemical, Candida guilliermondii 7087. Conditions: substrate concentration 1 mM. On the procedure: 0.1 ml of 1 mM di-fructosyl-lysine (as dissolved in 0.05M phosphate buffer pH 7.0) is added to 0.4 ml of 0.05M phosphate buffer (pH 7.0) containing 0.3 mM 4-aminoantipyrine, 0.5 mM N-ethyl-N-(2-hydroxy-3-sulfopropyl)-m-toluidine (TOOS) and 2.0 U/ml peroxidase, and the temperature of the resulting system is equilibrated at 37° C. To this is added 0.06 ml of the enzyme solution having a suitable activity, whereupon the variation of the absorbance of the system is measured with a spectrophotometer (U-2000 Model, manufactured by Hitachi Ltd. ). From the calibration curve as formed from a standard solution containing a determined amount of hydrogen peroxide to indicate the relation between the variation of the absorbance and the amount of hydrogen peroxide, the amount of the hydrogen peroxide as formed in the test system is obtained. The amount of the enzyme of forming one micromole of hydrogen peroxide per one minute is defined to be one activity unit.
0.2 ml of 1 mM di-fructosyl-lysine (as dissolved in 0.05M phosphate buffer pH 7.0) is prepared, and the temperature of it is equilibrated at 37° C. To this is added 0.12 ml of the enzyme solution having a suitable activity and reacted for a suitable period of time at 37° C., and the reaction is stopped in a hot water bath of 100° C. To this is added 0.8 ml of 0.05M phosphate buffer (pH 7.0) containing 0.3 mM 4-aminoantipyrine, 0.5 mM TOOS and 2.0 U/ml peroxidase, whereupon the variation of the absorbance of the system is measured with a spectrophotometer (U-2000 Model, manufactured by Hitachi Ltd. ). From the calibration curve as formed from a standard solution containing a determined amount of hydrogen peroxide to indicate the relation between the variation of the absorbance and the amount of hydrogen peroxide, the amount of the hydrogen peroxide as formed in the test system is obtained. The amount of the enzyme of forming one micromole of hydrogen peroxide per one minute is defined to be one activity unit.
The enzyme catalyzes the reaction of decomposing amadori compounds of α-amino acids, β-amino acids, ε-amino acids, D-amino acids and amines to form a glucosone, hydrogen peroxide and the corresponding amino acid or amine. The enzyme not only decomposes amadori compounds of α-amino acids but also effectively acts on other amadori compounds having fructose as bonded to amino groups as positioned in other positions than the α-position of amino acids (for example, di-D-fructosyl-lysine, ε-D-fructosyl-L-lysine).
The concentration of the substrate as employed for the measurement was 2 mM, except for the use of 1 mM for di-D-fructosyl-lysine.
The data of the activity are relative values to the activity to D-fructosyl-glycine being 100.
Consider Di-D-fructosyl-lysine, for which the “Activity of the Enzyme (relative values to the activity to D-fructosyl-glycine being 100)” value worked out at 3500.

The same assay, now with this note: substrate concentration 2 mM.
Turning to `N[C@@H](CCCCNCC(=O)[C@@H](O)[C@H](O)[C@H](O)CO)C(=O)O` [D-fructosyl-L-lysine], the “Activity of the Enzyme (relative values to the activity to D-fructosyl-glycine being 100)” value was determined as 1386. Turning to `CNCC(=O)[C@@H](O)[C@H](O)[C@H](O)CO` [D-fructosyl-methylamine], the “Activity of the Enzyme (relative values to the activity to D-fructosyl-glycine being 100)” value amounted to 105. Still for that read-out and setting: the value for D-fructosyl-polylysine was 34; that for `O=C(CN1CCC[C@H]1C(=O)O)[C@@H](O)[C@H](O)[C@H](O)CO` [D-fructosyl-L-proline] was 1348. On the same count and under the same terms, for `C[C@H](NCC(=O)[C@@H](O)[C@H](O)[C@H](O)CO)C(=O)O` [D-fructosyl-L-alanine] the value was 251. As to `O=C(O)CNCC(=O)[C@@H](O)[C@H](O)[C@H](O)CO` [D-fructosyl-glycine], the “Activity of the Enzyme (relative values to the activity to D-fructosyl-glycine being 100)” value is recorded as 100. Turning to `CN(CC(=O)O)CC(=O)[C@@H](O)[C@H](O)[C@H](O)CO` [D-fructosyl-sarcosine], the “Activity of the Enzyme (relative values to the activity to D-fructosyl-glycine being 100)” value turned out to be 63. With `C[C@@H](NCC(=O)[C@@H](O)[C@H](O)[C@H](O)CO)C(=O)O` [D-fructosyl-D-alanine], the “Activity of the Enzyme (relative values to the activity to D-fructosyl-glycine being 100)” value is 26. Still for that read-out and setting: for `O=C(O)[C@H](Cc1ccccc1)NCC(=O)[C@@H](O)[C@H](O)[C@H](O)CO` [D-fructosyl-L-phenylalanine] the value was 36; for `O=C(O)CCNCC(=O)[C@@H](O)[C@H](O)[C@H](O)CO` [D-fructosyl-β-alanine], 44.

Another assay has as its system fructosylamine deglycase. As to the kind of experiment: Influence by inhibitors on the enzyme. The class given is biochemical, Candida guilliermondii 7087. Conditions: 2 mM inhibitor; 10 mM phosphate buffer pH 6.0; 37° C., 4 minutes. On the procedure:
The influence of a 2 mM inhibitor on the enzyme was as follows: […]
Consider `[Cu+2]` [Cu^2+], for which the “Inhibition of the enzyme” value is listed as “strongly inhibited”.

For `[Ni+2]` [Ni^2+], the “Inhibition of the enzyme” value is reported as “strongly inhibited”. The same measure, in the same setting: the value for `[Mg+2]` [Mg^2+] was “not inhibited”; that for `[Co+2]` [Co^2+] was “strongly inhibited”; that for `[N-]=[N+]=[N-].[Na+]` [NAN3] was “not inhibited”. Regarding `O=C(O)c1cc[c]([Hg][Cl])cc1` [p-chloromercuribenzoic acid], the “Inhibition of the enzyme” value is “strongly inhibited”. On the same count and under the same terms, the value for `[Zn+2]` [Zn^2+] was “strongly inhibited”.
